# Reference: publication PMC3639963, “A New Class of Small Molecule Inhibitor of BMP Signaling” (PLoS ONE, 2013)
# “And” between values parts separate entries of the source, which are not always exact repeats. Equal values may be shown once.
# Legend:
# Assay in all cases: Nanosyn kinase profiling
# Type in all cases: biochemical
# CDK2/cycE = molecular target: T1, CDK2/cycE (Homo sapiens, UniProt P24941); settings: read-out: Percentage inhibition; for inhibition at 0.1 µM: 0.1 µM inhibitor; for inhibition at 1 µM: 1 µM inhibitor
# T1 construct: purchased Nanosyn (enzymatic panel); SGC in-house recombinant human kinases (DSF panel); Invitrogen (ALK1-6)
# Outline: (§1)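 Percent inhibition of each kinase was measured with the inhibitor at 0.1 µM and at 1 µM, as part of a 200-kinase human selectivity panel.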
# INSR = molecular target: T2, INSR (Homo sapiens, UniProt P06213); settings: read-out: Percentage inhibition; for inhibition at 0.1 µM: 0.1 µM inhibitor; for inhibition at 1 µM: 1 µM inhibitor
# T2 construct: purchased Nanosyn (enzymatic panel); SGC in-house recombinant human kinases (DSF panel); Invitrogen (ALK1-6)
# Outline: as §1
# IGF1R = molecular target: T3, IGF1R (Homo sapiens, UniProt P08069); settings: read-out: Percentage inhibition; for inhibition at 0.1 µM: 0.1 µM inhibitor; for inhibition at 1 µM: 1 µM inhibitor
# T3 construct: purchased Nanosyn (enzymatic panel); SGC in-house recombinant human kinases (DSF panel); Invitrogen (ALK1-6)
# Outline: as §1
# ERBB2 = molecular target: T4, ERBB2 (Homo sapiens, UniProt P04626); settings: read-out: Percentage inhibition; for inhibition at 0.1 µM: 0.1 µM inhibitor; for inhibition at 1 µM: 1 µM inhibitor
# T4 construct: purchased Nanosyn (enzymatic panel); SGC in-house recombinant human kinases (DSF panel); Invitrogen (ALK1-6)
# Outline: as §1
# RON = molecular target: T5, RON (Homo sapiens, UniProt Q04912); settings: read-out: Percentage inhibition; for inhibition at 0.1 µM: 0.1 µM inhibitor; for inhibition at 1 µM: 1 µM inhibitor
# T5 construct: purchased Nanosyn (enzymatic panel); SGC in-house recombinant human kinases (DSF panel); Invitrogen (ALK1-6)
# Outline: as §1
# CSK = molecular target: T6, CSK (Homo sapiens, UniProt P41240); settings: read-out: Percentage inhibition; for inhibition at 0.1 µM: 0.1 µM inhibitor; for inhibition at 1 µM: 1 µM inhibitor
# T6 construct: purchased Nanosyn (enzymatic panel); SGC in-house recombinant human kinases (DSF panel); Invitrogen (ALK1-6)
# Outline: as §1
# JAK2 = molecular target: T7, JAK2 (Homo sapiens, UniProt O60674); settings: read-out: Percentage inhibition; for inhibition at 0.1 µM: 0.1 µM inhibitor; for inhibition at 1 µM: 1 µM inhibitor
# T7 construct: purchased Nanosyn (enzymatic panel); SGC in-house recombinant human kinases (DSF panel); Invitrogen (ALK1-6)
# Outline: as §1
# CAMK2δ = molecular target: T8, CAMK2δ (Homo sapiens, UniProt Q13557); settings: read-out: Percentage inhibition; for inhibition at 0.1 µM: 0.1 µM inhibitor; for inhibition at 1 µM: 1 µM inhibitor
# T8 construct: purchased Nanosyn (enzymatic panel); SGC in-house recombinant human kinases (DSF panel); Invitrogen (ALK1-6)
# Outline: as §1
# MAPKAPK3 = molecular target: T9, MAPKAPK3 (Homo sapiens, UniProt Q16644); settings: read-out: Percentage inhibition; for inhibition at 0.1 µM: 0.1 µM inhibitor; for inhibition at 1 µM: 1 µM inhibitor
# T9 construct: purchased Nanosyn (enzymatic panel); SGC in-house recombinant human kinases (DSF panel); Invitrogen (ALK1-6)
# Outline: as §1
# ABL1 = molecular target: T10, ABL1 (Homo sapiens, UniProt P00519); settings: for Percentage inhibition: 0.1 µM; for inhibition at 1 µM: 1 µM inhibitor
# T10 construct: purchased Nanosyn (enzymatic panel); SGC in-house recombinant human kinases (DSF panel); Invitrogen (ALK1-6)
# Outline: as §1
# ARG = molecular target: T11, ARG (Homo sapiens, UniProt P42684); settings: for inhibition at 0.1 µM / inhibition at 1 µM: read-out: Percentage inhibition; for inhibition at 1 µM: 1 µM inhibitor
# T11 construct: purchased Nanosyn (enzymatic panel); SGC in-house recombinant human kinases (DSF panel); Invitrogen (ALK1-6)
# Outline: as §1
# MST1 = molecular target: T12, MST1 (Homo sapiens, UniProt Q13043); settings: read-out: Percentage inhibition; for inhibition at 0.1 µM: 0.1 µM inhibitor; for inhibition at 1 µM: 1 µM inhibitor
# T12 construct: purchased Nanosyn (enzymatic panel); SGC in-house recombinant human kinases (DSF panel); Invitrogen (ALK1-6)
# T12 sequence (Q13043 1-487): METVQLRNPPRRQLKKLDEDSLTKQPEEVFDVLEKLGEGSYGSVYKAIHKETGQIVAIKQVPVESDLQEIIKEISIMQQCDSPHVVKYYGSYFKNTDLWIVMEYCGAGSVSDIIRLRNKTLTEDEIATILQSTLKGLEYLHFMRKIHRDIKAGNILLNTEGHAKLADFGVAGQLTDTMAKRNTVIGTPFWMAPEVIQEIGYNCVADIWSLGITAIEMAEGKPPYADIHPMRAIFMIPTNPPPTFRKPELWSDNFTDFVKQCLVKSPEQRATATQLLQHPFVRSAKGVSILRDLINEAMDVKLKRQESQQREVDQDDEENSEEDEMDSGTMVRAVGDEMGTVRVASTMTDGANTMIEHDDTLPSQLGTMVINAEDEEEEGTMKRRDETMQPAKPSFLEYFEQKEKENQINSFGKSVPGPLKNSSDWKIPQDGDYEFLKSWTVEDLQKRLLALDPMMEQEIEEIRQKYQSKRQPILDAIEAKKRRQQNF
# Outline: as §1
# CDK2/cycA = molecular target: T13, CDK2/cycA (Homo sapiens, UniProt P24941); settings: read-out: Percentage inhibition; for inhibition at 0.1 µM: 0.1 µM inhibitor; for inhibition at 1 µM: 1 µM inhibitor
# T13 construct: purchased Nanosyn (enzymatic panel); SGC in-house recombinant human kinases (DSF panel); Invitrogen (ALK1-6)
# Outline: as §1
# BLK = molecular target: T14, BLK (Homo sapiens, UniProt P51451); settings: read-out: Percentage inhibition; for inhibition at 0.1 µM: 0.1 µM inhibitor; for inhibition at 1 µM: 1 µM inhibitor
# T14 construct: purchased Nanosyn (enzymatic panel); SGC in-house recombinant human kinases (DSF panel); Invitrogen (ALK1-6)
# Outline: as §1
# [1] = read-out: Percentage inhibition
# T2 sequence (P06213 28-1382): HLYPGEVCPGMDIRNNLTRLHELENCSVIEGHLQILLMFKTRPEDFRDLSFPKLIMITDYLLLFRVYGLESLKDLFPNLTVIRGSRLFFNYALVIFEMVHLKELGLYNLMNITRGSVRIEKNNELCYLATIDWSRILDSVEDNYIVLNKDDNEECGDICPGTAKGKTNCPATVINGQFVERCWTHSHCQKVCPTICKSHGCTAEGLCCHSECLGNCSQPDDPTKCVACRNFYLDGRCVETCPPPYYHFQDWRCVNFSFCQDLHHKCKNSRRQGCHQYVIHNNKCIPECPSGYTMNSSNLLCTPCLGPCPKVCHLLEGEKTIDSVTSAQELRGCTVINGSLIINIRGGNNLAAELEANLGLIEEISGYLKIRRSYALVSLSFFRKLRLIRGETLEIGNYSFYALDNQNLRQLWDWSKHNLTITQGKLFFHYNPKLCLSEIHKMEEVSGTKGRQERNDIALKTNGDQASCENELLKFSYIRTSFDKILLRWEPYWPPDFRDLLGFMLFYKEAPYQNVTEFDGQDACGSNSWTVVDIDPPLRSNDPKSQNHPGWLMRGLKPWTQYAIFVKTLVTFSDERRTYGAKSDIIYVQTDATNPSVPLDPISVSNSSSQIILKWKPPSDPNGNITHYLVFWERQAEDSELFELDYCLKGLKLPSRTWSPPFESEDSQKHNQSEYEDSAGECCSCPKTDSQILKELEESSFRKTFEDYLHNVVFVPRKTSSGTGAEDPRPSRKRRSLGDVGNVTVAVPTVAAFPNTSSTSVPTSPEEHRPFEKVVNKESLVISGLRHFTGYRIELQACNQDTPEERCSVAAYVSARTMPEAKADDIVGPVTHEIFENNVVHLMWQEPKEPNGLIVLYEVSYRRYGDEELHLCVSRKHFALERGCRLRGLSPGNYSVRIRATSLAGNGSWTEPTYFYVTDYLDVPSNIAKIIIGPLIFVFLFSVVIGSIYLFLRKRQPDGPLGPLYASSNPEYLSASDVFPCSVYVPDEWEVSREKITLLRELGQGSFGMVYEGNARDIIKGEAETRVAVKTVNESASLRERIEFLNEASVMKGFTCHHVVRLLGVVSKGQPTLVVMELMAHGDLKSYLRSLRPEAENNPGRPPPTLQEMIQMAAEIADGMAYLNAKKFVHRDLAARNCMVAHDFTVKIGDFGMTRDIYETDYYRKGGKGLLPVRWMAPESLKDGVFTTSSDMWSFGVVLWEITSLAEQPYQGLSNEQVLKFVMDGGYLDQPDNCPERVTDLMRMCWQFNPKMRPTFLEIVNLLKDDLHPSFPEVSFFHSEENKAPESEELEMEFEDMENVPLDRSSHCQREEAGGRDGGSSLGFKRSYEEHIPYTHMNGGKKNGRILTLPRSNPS
# T4 sequence (P04626 23-1255): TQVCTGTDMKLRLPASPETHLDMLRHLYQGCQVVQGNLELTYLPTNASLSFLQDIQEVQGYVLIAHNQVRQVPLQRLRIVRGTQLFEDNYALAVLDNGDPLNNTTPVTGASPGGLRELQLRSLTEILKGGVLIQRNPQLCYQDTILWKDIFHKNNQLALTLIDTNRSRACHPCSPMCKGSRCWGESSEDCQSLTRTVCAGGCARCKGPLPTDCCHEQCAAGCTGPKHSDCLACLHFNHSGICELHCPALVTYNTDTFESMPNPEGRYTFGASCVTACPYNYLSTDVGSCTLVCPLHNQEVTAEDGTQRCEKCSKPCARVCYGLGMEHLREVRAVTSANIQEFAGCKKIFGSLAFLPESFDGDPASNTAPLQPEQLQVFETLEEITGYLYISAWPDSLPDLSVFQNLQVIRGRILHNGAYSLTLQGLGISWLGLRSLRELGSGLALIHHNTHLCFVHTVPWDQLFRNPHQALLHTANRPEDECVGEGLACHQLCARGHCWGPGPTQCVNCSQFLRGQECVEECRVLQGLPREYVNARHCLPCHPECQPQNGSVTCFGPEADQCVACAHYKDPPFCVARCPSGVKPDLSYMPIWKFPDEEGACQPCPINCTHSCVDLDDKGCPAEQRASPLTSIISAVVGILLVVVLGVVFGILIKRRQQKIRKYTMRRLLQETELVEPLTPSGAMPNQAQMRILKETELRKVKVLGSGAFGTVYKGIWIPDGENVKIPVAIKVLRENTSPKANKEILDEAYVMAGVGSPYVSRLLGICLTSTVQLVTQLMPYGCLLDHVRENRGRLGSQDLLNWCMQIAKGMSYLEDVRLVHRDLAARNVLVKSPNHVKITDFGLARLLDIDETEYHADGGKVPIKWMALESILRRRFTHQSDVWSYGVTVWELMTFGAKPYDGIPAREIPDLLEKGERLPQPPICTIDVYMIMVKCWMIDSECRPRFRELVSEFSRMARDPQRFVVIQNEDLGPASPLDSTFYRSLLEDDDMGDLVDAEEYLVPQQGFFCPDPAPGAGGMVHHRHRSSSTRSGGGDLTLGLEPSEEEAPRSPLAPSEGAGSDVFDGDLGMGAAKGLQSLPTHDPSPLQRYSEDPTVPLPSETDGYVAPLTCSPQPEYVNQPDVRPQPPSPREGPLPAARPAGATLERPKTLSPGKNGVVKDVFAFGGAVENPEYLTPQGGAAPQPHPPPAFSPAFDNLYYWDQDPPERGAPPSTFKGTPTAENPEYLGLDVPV
# T10 sequence (P00519 whole entry): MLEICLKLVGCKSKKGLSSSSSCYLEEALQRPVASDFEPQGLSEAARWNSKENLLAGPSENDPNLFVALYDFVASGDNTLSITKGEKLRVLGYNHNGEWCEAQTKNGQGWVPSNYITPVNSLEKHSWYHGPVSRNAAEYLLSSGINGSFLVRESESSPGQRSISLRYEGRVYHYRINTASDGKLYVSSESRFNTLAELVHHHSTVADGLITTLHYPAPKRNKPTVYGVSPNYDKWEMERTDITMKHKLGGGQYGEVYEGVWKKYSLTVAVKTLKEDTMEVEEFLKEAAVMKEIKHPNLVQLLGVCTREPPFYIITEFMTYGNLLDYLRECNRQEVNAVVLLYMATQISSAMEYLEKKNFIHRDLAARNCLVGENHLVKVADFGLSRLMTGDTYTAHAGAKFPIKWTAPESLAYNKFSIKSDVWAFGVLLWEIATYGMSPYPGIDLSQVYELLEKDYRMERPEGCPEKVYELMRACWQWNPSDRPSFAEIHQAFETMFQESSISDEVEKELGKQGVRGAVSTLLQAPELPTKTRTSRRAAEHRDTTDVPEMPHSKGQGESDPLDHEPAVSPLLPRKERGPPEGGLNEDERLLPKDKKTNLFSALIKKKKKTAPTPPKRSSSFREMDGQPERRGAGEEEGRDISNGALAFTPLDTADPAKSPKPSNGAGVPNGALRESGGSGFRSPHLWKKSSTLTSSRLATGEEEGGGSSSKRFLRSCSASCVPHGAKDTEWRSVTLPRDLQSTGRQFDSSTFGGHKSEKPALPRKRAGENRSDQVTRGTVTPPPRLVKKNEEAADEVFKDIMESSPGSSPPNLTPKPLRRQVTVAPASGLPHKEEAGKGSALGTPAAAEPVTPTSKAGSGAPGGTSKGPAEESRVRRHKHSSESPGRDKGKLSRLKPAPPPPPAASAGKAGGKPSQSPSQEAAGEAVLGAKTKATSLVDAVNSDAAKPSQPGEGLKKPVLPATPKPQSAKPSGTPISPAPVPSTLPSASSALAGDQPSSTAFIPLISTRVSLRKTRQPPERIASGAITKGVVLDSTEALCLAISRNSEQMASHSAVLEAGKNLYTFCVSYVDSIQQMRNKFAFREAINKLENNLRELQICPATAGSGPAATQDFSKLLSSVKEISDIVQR
# T8 sequence (Q13557 whole entry): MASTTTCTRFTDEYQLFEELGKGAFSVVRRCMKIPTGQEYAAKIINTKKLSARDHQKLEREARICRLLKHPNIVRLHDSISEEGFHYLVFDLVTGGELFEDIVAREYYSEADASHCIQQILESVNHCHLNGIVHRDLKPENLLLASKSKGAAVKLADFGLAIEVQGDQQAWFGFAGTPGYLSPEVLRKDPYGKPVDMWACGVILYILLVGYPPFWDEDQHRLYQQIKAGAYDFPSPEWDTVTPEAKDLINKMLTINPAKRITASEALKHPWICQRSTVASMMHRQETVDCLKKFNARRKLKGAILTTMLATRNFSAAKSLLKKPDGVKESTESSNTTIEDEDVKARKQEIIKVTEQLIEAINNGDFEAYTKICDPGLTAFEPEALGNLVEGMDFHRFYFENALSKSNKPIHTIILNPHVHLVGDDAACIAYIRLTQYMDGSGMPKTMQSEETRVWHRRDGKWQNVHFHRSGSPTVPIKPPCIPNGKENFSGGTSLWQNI
# T6 sequence (P41240 whole entry): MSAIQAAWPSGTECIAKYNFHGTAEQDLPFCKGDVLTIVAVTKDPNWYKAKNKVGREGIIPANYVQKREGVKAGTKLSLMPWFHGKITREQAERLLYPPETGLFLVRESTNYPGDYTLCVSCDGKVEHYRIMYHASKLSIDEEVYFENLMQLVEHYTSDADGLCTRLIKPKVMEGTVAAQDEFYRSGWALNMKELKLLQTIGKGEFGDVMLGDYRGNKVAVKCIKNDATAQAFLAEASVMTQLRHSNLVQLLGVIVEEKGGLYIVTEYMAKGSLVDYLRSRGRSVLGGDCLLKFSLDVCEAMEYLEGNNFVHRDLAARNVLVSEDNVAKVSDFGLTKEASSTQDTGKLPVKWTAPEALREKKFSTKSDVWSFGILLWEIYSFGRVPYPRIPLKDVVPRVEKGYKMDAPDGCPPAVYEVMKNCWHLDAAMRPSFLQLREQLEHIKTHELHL
# T9 sequence (Q16644 whole entry): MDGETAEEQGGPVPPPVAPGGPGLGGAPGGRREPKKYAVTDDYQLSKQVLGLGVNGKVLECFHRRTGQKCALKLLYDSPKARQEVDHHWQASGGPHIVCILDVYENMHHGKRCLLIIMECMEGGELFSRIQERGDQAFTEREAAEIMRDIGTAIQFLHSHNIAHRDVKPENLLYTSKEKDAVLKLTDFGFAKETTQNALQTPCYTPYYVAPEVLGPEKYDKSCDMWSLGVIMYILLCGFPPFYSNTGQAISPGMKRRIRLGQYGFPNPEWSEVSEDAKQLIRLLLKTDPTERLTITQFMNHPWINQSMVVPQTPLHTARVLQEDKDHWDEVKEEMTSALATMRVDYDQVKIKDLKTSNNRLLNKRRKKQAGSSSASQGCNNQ
SMILES,inhibition at 0.1 µM (CDK2/cycE) [%],inhibition at 1 µM (CDK2/cycE) [%],inhibition at 0.1 µM (INSR) [%],inhibition at 1 µM (INSR) [%],inhibition at 0.1 µM (IGF1R) [%],inhibition at 1 µM (IGF1R) [%],inhibition at 0.1 µM (ERBB2) [%],inhibition at 1 µM (ERBB2) [%],inhibition at 0.1 µM (RON) [%],inhibition at 1 µM (RON) [%],inhibition at 0.1 µM (CSK) [%],inhibition at 1 µM (CSK) [%],inhibition at 0.1 µM (JAK2) [%],inhibition at 1 µM (JAK2) [%],inhibition at 0.1 µM (CAMK2δ) [%],inhibition at 1 µM (CAMK2δ) [%],inhibition at 0.1 µM (MAPKAPK3) [%],inhibition at 1 µM (MAPKAPK3) [%],Percentage inhibition (ABL1; 0.1 µM inhibitor),inhibition at 1 µM (ABL1; [1]) [%],also measured
"COc1cc(-c2cc(-c3cccc(O)c3)cnc2N)cc(OC)c1OC [K02288, 3-[6-amino-5-(3,4,5-trimethoxy-phenyl)-pyridin-3-yl]-phenol]",0.2,1.5,-4,0.7,-3,-1,-5,-3,3,-1,3.2,13,0,0,-1,1.4,-1,-2,79% and > 50%,89,"Percentage inhibition (ARG; 0.1 µM inhibitor, 0.1 µM): > 50%; inhibition at 0.1 µM (ARG; 0.1 µM inhibitor): 66%; inhibition at 1 µM (ARG): 85%; inhibition at 0.1 µM (MST1): -1%; inhibition at 1 µM (MST1): 1.1%; inhibition at 0.1 µM (CDK2/cycA): 0%; inhibition at 1 µM (CDK2/cycA): 0%; inhibition at 0.1 µM (BLK): 3.2%; inhibition at 1 µM (BLK): 27%"
c1ccc2c(-c3cnn4cc(-c5ccc(N6CCNCC6)cc5)cnc34)ccnc2c1 [LDN-193189],2.8,5.3,3.8,4.5,4.1,5.4,2.1,2.1,-2,12,3.3,6,2,0.5,3.1,8.7,1.6,0.5,> 50%,84,"inhibition at 0.1 µM (ABL1; 0.1 µM inhibitor, read-out: Percentage inhibition): 62%; inhibition at 0.1 µM (ARG; 0.1 µM inhibitor): 33%; inhibition at 1 µM (ARG): 73%; inhibition at 0.1 µM (MST1): 4%; inhibition at 1 µM (MST1): 7.9%; inhibition at 0.1 µM (CDK2/cycA): 1.2%; inhibition at 1 µM (CDK2/cycA): 4.1%; inhibition at 0.1 µM (BLK): 3.9%; inhibition at 1 µM (BLK): 24%"
